Patent US20230310356A1, “COMPOSITION FOR PREVENTING, AMELIORATING, OR TREATING BRAIN DAMAGE AND MILD COGNITIVE IMPAIRMENT COMPRISING GLUTAMINE AS EFFECTIVE COMPONENT” (INDUSTRY-ACADEMIC COOPERATION FOUNDATION GYEONGSANG …, priority 2020, published 2023)

System: mouse with cognitive impairment caused by chronic immobilization stress (CIS)
Assay: ORT-OLT after oral administration of glutamine following cognitive impairment caused by CIS
Type: in vivo
Details: 2 weeks CIS, then oral glutamine 45 mg/kg bodyweight/day for 1 week
Procedure: After the oral administration of glutamine following an occurrence of cognitive impairment that has been caused by chronic immobilization stress (CIS), the effect of treating cognitive impairment was examined. Two weeks after applying CIS, the cognitive ability was tested by ORT-OLT. After that, while orally administering glutamine for 1 week (45 mg glutamine/kg bodyweight/day), a change in cognitive ability was examined from Day 4 (i.e., ORT-OLT were carried out from Day 4 to Day 7).

NC(=O)CC[C@H](N)C(=O)O [glutamine]
cognitive ability in OLT: restored to the level of stress-free control group
cognitive ability in ORT: restored to the level of stress-free control group
